Source: patent US20150208654A1, “SEED COATING METHODS AND COMPOSITIONS WITH A RYANODINE RECEPTOR BINDING AGENT” (PIONEER HI-BRED INTERNATIONAL, INC., priority 2012, published 2015)

Tests used:
Format in all cases: in vivo
[1] = system: velvetbean caterpillar (VBC) (Anticarsia gemmatalis); assay: Field plot larvae count on soybean grown from treated seeds (area 1); settings: 100 ug ai/seed, compared to untreated
Protocol: Soybean seeds were treated with chlorantraniliprole at rate of 100 ug ai/seed. The seeds were sown into soil bed fields (area 1) with a size of 8 meters by 8 meters in size, with an area of 64 m2. Plots were replicated 4 times. Evaluation was based on the total number of velvetbean caterpillar (VBC) (Anticarsia gemmatalis) larvae per meter at 37 to 63 days after planting (DAP), and converted to % larvae count reduction compared to the untreated (Table 3). 50 days after planting, the VBC larvae reduction was still 73%, and after 63 days had activity at 35%.

[2] = system: velvetbean caterpillar (VBC) (Anticarsia gemmatalis); assay: Field plot larvae count on soybean grown from treated seeds (area 2); settings: 100 ug ai/seed, compared to untreated
Protocol: Soybean seeds were treated with chlorantraniliprole at rate of 100 ug ai/seed. The seeds were sown into soil bed fields (area 2) with a size of 8 meters by 8 meters in size, with an area of 64 m2. Plots were replicated 4 times. Evaluation was based on the total number of velvetbean caterpillar (VBC) (Anticarsia gemmatalis) larvae per meter at 37 to 63 days after planting (DAP), and converted to % larvae count reduction compared to the untreated.

[3] = system: velvetbean caterpillar (VBC) (Anticarsia gemmatalis); assay: Laboratory-field leaf bio-assay (LBF) on leaves of soybean plants grown from treated seeds; settings: seed treatment 120 ug ai/seed, 2nd instar larvae
Protocol: Soybean seeds were treated with chlorantraniliprole at rates of 120 ug ai/seed. The seeds were sown into soil bed fields with a size of 6 meters in length and 4 rows of 40 cm in width. Leaf samples were collected at the 3rd to the 7th soybean trifoliate growth stage and brought to the laboratory. Laboratory-field leaf bio-assay (LBF) was performed for each soybean growth stage using velvetbean caterpillar (VBC) (Anticarsia gemmatalis) exposing the leaves to 2nd instar larvae stage. Each treatment group was replicated 4 times, and results (Table 2) are expressed as % larval mortality. At 43 days after planting, the VBC larval mortality rate was 88%.

SMILES: CNC(=O)c1cc(Cl)cc(C)c1NC(=O)c1cc(Br)nn1-c1ncccc1Cl [Chlorantraniliprole, chlorantraniliprole]
- % VBC larvae reduction ([1]; 37 DAP): 20%
- % VBC larvae reduction ([1]; 50 DAP): 73%
- % VBC larvae reduction ([1]; 63 DAP): 35%
- % VBC larvae reduction ([2]; 37 DAP): 25%
- % VBC larvae reduction ([2]; 50 DAP): 20%
- % VBC larvae reduction ([2]; 63 DAP): 43%
- % VBC larval mortality ([3]; 3rd trifoliate, 25 DAP): 100%
- % VBC larval mortality ([3]; 4th trifoliate, 29 DAP): 94%
- % VBC larval mortality ([3]; 5th trifoliate, 36 DAP): 91%
- % VBC larval mortality ([3]; 7th trifoliate, 43 DAP): 88%
